Data on four compounds can be found in patent US20170145002A1, “DEUTERATED ISOXAZOLE DERIVATIVES AND THEIR USE AS METABOTROPIC GLUTAMATE RECEPTOR POTENTIATORS” (AstraZeneca AB, priority 2015, published 2017).

Series [1] is described as follows: Metabolic stability and intrinsic clearance in human liver microsomes (HLM). Type of series: in vitro ADME. The conditions noted are these: pooled human liver microsomes, NADPH, 37° C., 0.5-30 minutes; for microsomal CLint at 1 μM: read-out: Human Liver Microsomes Median CLint; for half-life at 1 μM: read-out: Human Liver Microsomes Median t1/2. The procedure:
This assay was used to measure the in vitro metabolic stability of Compounds A, B, C and D of the application in pooled human liver microsomes. The concentration of parent compound in the reaction system for calculating intrinsic clearance of the compounds and estimating their stability in pooled human liver microsomes was evaluated by LC/MS/MS. 100 μmol/L solutions of each Compound A, B, C and D as well as 100 μmol/L solutions of each positive control compound (i.e., phenacetin, verapamil, diclofenac, imiprimine, benzydamine and metoprolol) were prepared by adding 2 μL of 10 mmol/L stock solution in DMSO to 198 μL of acetonitrile. A 1.1236 mg/mL HLM mixture was prepared by adding 1325 μL of 20 mg/mL HLM to 22260 μL of phosphate buffer. The HLM mixture (222.5 μL of the 1.1236 mg/mL mixture) and 25 μL of a 10 mM NADPH solution were added to the incubation plates. After mixing on a whirly mixer for 10 seconds, the incubation plates were pre-warmed at 37° C. for 8 minutes. The solutions of Compounds A, B, C and D (2.5 μL of the 100 μM solutions prepared before) as well as positive control solutions (2.5 μL of the 100 μM solutions prepared before) were added to the incubation plate. The incubation mixture was mixed on a whirly mixer for 10 seconds and incubation was carried out at 37° C. The reaction was quenched by transferring 20 μL of the incubated mixture at 0.5, 5, 10, 15, 20 and 30 minutes into the quenching plate containing 100 μL of cold acetonitrile. The quenching plates at 4000 rpm were centrifuged for 20 minutes, placed at 4 ° C. for 30 minutes, then re-centrifuged at 4000 rpm for 20 minutes to precipitate protein. The supernatant of each compound (40 μL) was transferred into a 96-well analysis plate. Compounds A, B, C and D were pooled together into one cassette, and pure water (160 μL) was added in each well. All incubations were performed in singlicate. API 4000 (AB sciex, USA) Ultra mass spectrometer was used to carry out the samples analysis in the MRM mode (MS/MS). Peak areas were determined from extracted ion chromatograms. Percentage of parent compound remaining was calculated from peak area of each compound or positive control. The slope value, k, was determined by linear regression of the natural logarithm of percent parent remaining vs. incubation time curve.
All calculations were carried out using Microsoft Excel. The in vitro half-life (in vitro t1/2) was determined from the slope value, wherein in vitro t1/2=−(0.693/k). Conversion of the in vitrot1/2 (in min) into the in vitro intrinsic clearance (in vitro CLint, in μL/min/mg proteins) was done by using the following equation:
in vitro CLint=(0.693/t1/2)*(volume of incubation (μL)/amount of proteins (mg)).
On the technique in general: Liver microsomes are a subcellular fraction often used to study metabolism.

Series [2] addresses CYP3A4 (Homo sapiens, UniProt P08684). Put plainly: CYP isoform phenotyping. The conditions noted are these: for Contribution of CYP3A4 to metabolism (in words): assay conditions of Example 8; for CYP 3A4 (% contribution): recombinant human CYP isozymes, parent disappearance. The format is in vitro ADME. The procedure:
This assay was used to determine whether Compounds A, B, C and D are metabolised by CYP enzymes.
Solutions (200 μmol/L) of each Compound A, B, C and D as well as of positive controls (phenacetin for CYP1A2, coumarin for CYP2A6, bupropion for CYP2B6, amitriptyline for CYP2C8, 2C19, 2D6 and 3A4, diclofenac for CYP2C9, chlorzoxazone for CYP2E1, midazolam for CYP3A5) were prepared by adding 4 μL of a 10 mmol/L stock solution in DMSO to 196 μL of acetonitrile. The recombinant human CYP isozymes were thawed on wet ice (over an hour). Mixtures (2670 μL) of CYP isozymes in phosphate buffer containing 112.36 nmol/L CYP1A2, 2A6, 2B6, 2C8, 2C9, 2C19, 2D6, 2E1, 3A4 or 3A5 were prepared. The CYP isozyme mixture (222.5 [EL), 25 μL of 10 mmol/L of NADPH solution and 2.5 μL of vehicle control (2: 98 DMSO/acetonitrile) were added to the blank control plate. The resulting mixture was mixed on a whirly mixer for 10 seconds before a stop solution (1000 μL) with internal standard containing 200 nmol/L of 5,5-diethyl-1,3-diphenyl-2-iminobarbituric acid and 100 nmol/L of tolbutamide was added. The blank control plate was sealed with a lid and mixed on whirly mixer for 120 seconds, and kept on ice prior to centrifugation.
The standard samples containing 200 pmol/mL hydroxybupropion and 40 pmol/mL 6-hydroxychlorzoxazone were obtained as follows: the CYP isozyme mixture (222.5 μL) and 25 μL of 10 mmol/L NADPH solution were added to separate wells of the blank control plate. 2.5 μL of a 20 nmol/mL hydroxybupropion solution was added to one well and 2.5 μL of a 4 nmol/mL 6-hydroxychlorzoxazone solution was added to the other well. Mixing was conducted on a whirly mixer for 10 seconds. The stop solution with internal standard (1000 μL) was added to both wells. The blank control plate was sealed with a lid and mixing was conducted on a whirly mixer for 120 seconds. The blank control plate was kept on ice prior to centrifugation.
The CYP isozyme mixtures (222.5 μL) and Compounds A, B, C, D and the positive controls (2.5 μL of each 200 μmol/L solution) were added to the incubation plates. Mixing on a whirly mixer was conducted for 10 seconds. The incubation plate was pre-warmed at 37° C. for 15 minutes. The CYP/compound mixture (27 μL) was transferred from the incubation plate to the 0 minute “Quenching plates” containing 120 μL of the stop solution and 3 μL of a 10 mmol/L NADPH solution. The 0 minute “Quenching plates” was sealed with a lid and kept on ice. Mixing of the 0 minute “Quenching plates” on a whirly mixer was conducted for 120 seconds. The reaction was initiated with the addition of 22 μL of a 10 mmol/L of NADPH solution to the incubation plate. Mixing of the incubation mixture on a whirly mixer was conducted for 10 seconds. The incubation was carried out at 37° C. At 5, 10, 15 and 25 minutes, the incubation mixture was mixed on a whirly mixer for 10 seconds and samples of the incubated mixture (30 μL) were transferred at each time point to wells in a separate “Quenching plate” containing 120 μL of the stop solution, which was sealed with a lid and kept on ice. Mixing on a whirly mixer was conducted for 120 seconds. […]
All calculations are carried out using Microsoft Excel. Peak areas were determined from extracted ion chromatograms. The percentage of parent remaining was calculated from peak area of Compounds A, B, C, D and positive controls. […]

Sequence of CYP3A4 (P08684 whole entry, canonical isoform): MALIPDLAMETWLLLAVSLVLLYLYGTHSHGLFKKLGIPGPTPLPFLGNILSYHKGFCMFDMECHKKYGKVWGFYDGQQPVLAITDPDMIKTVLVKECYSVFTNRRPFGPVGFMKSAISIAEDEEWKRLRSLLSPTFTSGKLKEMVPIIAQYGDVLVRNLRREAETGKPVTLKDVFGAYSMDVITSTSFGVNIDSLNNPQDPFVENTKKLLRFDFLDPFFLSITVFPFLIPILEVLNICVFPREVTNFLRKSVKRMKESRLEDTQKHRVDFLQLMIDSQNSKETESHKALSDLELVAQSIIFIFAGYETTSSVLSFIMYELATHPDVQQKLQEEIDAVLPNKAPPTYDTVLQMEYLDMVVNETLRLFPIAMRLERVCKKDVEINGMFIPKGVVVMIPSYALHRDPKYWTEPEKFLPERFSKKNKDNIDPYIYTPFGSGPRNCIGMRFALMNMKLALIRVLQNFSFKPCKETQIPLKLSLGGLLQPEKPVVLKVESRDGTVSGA

`[2H]C1([2H])OC([2H])([2H])C([2H])([2H])N(C(=O)c2cc(-c3cc(Cl)c4c(c3)CN([C@@H](C)C3CC3)C4=O)on2)C1([2H])[2H]` [Compound A, (S)-7-chloro-2-(1-cyclopropylethyl)-5-(3-(morpholine-4-carbonyl-2,2,3,3,5,5,6,6-d8)isoxazol-5-yl)isoindolin-1-one]: in series [1], the microsomal CLint at 1 μM is less than 3 µL/min/mg and the half-life at 1 μM was more than 3.85 h. Also, in series [2], the “Contribution of CYP3A4 to metabolism (in words)” value is listed as “no measureable contribution”.

Consider `[2H]C1([2H])CN(C(=O)c2cc(-c3cc(Cl)c4c(c3)CN([C@@H](C)C3CC3)C4=O)on2)CC([2H])([2H])O1` [Compound B, (S)-7-chloro-2-(1-cyclopropylethyl)-5-(3-(morpholine-4-carbonyl-2,2,6,6-d4)isoxazol-5-yl)isoindolin-1-one], for which, in series [1], the microsomal CLint at 1 μM stood at 9.5 µL/min/mg and the half-life at 1 μM was determined as 1.22 h. The “CYP 3A4 (% contribution)” value in series [2] is on record as 82.3%.

With `[2H]C1([2H])COCC([2H])([2H])N1C(=O)c1cc(-c2cc(Cl)c3c(c2)CN([C@@H](C)C2CC2)C3=O)on1` [Compound C, (S)-7-chloro-2-(1-cyclopropylethyl)-5-(3-(morpholine-4-carbonyl-3,3,5,5-d4)isoxazol-5-yl)isoindolin-1-one], in series [1], the microsomal CLint at 1 μM was found to be 7 µL/min/mg and the half-life at 1 μM turned out to be 1.66 h. Besides, in series [2], the “CYP 3A4 (% contribution)” value is 99.7%.

On to `C[C@@H](C1CC1)N1Cc2cc(-c3cc(C(=O)N4CCOCC4)no3)cc(Cl)c2C1=O` [Compound D, (S)-7-chloro-2-(1-cyclopropylethyl)-5-(3-(morpholine-4-carbonyl)isoxazol-5-yl)isoindolin-1-one, reference compound], for which, in series [1], the microsomal CLint at 1 μM was 9.5 µL/min/mg and the half-life at 1 μM is 1.22 h. Moreover, in series [2], the “Contribution of CYP3A4 to metabolism (in words)” value was “metabolized predominately by CYP3A4” and the “CYP 3A4 (% contribution)” value was found to be 100%.
